Assay [1] has as its target Tyrosine-protein kinase HCK (Homo sapiens) (UniProt P08631). The experiment in a line: Inhibition of human HCK catalytic domain expressed in baculovirus assessed as substrate phosphorylation using fluorescence-labelled peptides as substrate at 0.2 uM after 90 mins by microfluidic peptide phosphorylation assay.
The target of assay [2] is T1, Calcium/calmodulin-dependent protein kinase type IV (Homo sapiens) (UniProt Q16566).
T1 sequence (whole entry): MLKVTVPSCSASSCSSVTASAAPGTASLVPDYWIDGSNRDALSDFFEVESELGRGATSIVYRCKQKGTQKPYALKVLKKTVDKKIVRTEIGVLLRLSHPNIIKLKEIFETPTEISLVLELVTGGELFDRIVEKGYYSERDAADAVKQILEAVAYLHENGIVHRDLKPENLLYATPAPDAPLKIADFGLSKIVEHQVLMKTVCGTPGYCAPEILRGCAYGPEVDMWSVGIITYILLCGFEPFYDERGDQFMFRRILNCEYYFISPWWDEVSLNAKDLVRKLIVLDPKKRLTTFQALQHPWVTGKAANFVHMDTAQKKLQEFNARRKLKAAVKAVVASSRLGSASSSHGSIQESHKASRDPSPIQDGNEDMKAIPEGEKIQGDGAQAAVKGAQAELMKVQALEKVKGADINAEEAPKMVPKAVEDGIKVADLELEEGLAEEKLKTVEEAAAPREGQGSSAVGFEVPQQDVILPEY
The experiment in a line: Inhibition of human full length CAMK4 expressed in baculovirus assessed as substrate phosphorylation using fluorescence-labelled peptides as substrate at 0.1 uM after 90 mins by microfluidic peptide phosphorylation assay.

In assay [3] the target is Ribosomal protein S6 kinase alpha-5 (Homo sapiens) (UniProt O75582). The experiment in a line: Inhibition of human full length MSK1 expressed in baculovirus assessed as substrate phosphorylation using fluorescence-labelled peptides as substrate at 420 uM after 90 mins by microfluidic peptide phosphorylation assay.
Sequence of Ribosomal protein S6 kinase alpha-5 (Homo sapiens) (O75582 whole entry, looked up): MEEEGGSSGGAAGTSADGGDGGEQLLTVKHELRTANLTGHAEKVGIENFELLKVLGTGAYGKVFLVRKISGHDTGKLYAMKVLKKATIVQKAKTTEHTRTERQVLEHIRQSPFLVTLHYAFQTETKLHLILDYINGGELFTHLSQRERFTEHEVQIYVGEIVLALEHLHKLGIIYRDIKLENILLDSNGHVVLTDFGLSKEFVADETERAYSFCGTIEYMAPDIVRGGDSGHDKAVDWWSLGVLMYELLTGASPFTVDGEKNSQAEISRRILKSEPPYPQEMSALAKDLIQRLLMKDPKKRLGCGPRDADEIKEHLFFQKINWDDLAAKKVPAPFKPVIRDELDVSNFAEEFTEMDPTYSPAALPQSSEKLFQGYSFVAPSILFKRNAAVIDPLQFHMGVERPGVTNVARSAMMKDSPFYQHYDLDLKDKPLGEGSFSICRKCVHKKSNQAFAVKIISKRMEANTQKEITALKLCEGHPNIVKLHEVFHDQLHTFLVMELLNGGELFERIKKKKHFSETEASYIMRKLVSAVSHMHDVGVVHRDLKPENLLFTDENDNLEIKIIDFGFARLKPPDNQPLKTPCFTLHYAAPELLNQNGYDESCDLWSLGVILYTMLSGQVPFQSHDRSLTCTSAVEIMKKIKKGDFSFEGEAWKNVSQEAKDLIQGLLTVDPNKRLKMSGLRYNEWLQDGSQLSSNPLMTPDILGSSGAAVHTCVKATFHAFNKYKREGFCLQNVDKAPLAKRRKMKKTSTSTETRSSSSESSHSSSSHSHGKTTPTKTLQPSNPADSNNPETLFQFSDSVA
Assay [4] has as its target Mitogen-activated protein kinase 3 (Homo sapiens) (UniProt P27361). The experiment in a line: Inhibition of human full length ERK1 expressed in Escherichia coli cell assessed as substrate phosphorylation using fluorescence-labelled peptides as substrate at 8 uM after 90 mins by microfluidic peptide phosphorylation assay.
Assay [5] concerns the target Ribosomal protein S6 kinase alpha-2 (Homo sapiens) (UniProt Q15349). The experiment in a line: Inhibition of human full length RSK3 expressed in baculovirus assessed as substrate phosphorylation using fluorescence-labelled peptides as substrate at 8 uM after 90 mins by microfluidic peptide phosphorylation assay.
Assay [6] relates to Fibroblast growth factor receptor 2 (Homo sapiens), P21802 [N549H]. The experiment in a line: Inhibition of human FGFR2 N549H mutant catalytic domain expressed in baculovirus assessed as substrate phosphorylation using fluorescence-labelled peptides as substrate at […] after 90 mins by microfluidic peptide phosphorylation assay.
Sequence of Fibroblast growth factor receptor 2 (Homo sapiens), P21802 [N549H] (P21802 whole entry N549H, the tested form may be a part): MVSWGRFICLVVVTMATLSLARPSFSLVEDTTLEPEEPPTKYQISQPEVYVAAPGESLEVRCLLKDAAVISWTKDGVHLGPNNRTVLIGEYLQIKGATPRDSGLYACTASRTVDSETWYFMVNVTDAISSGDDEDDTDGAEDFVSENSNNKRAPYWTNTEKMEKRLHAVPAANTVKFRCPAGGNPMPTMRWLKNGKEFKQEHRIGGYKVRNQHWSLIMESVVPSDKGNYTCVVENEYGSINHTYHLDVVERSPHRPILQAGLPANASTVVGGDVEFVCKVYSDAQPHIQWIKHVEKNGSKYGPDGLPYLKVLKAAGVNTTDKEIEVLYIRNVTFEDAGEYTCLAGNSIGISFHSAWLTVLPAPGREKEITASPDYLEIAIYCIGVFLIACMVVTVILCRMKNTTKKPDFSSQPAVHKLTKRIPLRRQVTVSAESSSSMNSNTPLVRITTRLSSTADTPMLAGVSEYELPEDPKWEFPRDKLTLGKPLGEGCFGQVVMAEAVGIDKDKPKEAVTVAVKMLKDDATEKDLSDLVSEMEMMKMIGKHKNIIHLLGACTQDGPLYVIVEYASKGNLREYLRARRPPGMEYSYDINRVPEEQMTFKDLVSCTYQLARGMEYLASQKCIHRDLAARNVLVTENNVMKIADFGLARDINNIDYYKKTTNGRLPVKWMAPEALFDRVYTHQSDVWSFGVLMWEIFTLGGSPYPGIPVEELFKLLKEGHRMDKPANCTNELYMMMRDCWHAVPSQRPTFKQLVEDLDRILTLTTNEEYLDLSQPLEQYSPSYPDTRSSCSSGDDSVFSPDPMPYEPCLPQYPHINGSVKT
The target in assay [7] is T2, Serine/threonine-protein kinase Chk1 (Homo sapiens) (UniProt O14757).
T2 sequence (whole entry): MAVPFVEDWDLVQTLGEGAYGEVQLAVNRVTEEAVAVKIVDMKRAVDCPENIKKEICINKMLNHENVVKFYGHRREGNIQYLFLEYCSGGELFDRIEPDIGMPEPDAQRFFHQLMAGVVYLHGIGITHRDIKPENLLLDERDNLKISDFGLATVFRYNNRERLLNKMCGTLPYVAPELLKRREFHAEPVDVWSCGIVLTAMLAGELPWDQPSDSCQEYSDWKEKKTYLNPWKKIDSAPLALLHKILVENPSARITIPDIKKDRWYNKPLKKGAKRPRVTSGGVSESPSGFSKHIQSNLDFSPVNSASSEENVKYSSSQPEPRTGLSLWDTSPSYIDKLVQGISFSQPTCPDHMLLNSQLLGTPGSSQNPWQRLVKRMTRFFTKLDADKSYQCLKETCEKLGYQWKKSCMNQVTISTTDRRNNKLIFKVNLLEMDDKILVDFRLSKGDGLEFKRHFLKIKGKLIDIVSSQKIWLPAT
The experiment in a line: Inhibition of human full length CHK1 expressed in baculovirus assessed as substrate phosphorylation using fluorescence-labelled peptides as substrate at 1000 uM after 90 mins by microfluidic peptide phosphorylation assay.

Assay [8] has as its target Platelet-derived growth factor receptor alpha (Homo sapiens) (UniProt P16234). The experiment in a line: Inhibition of human PDGFR alpha catalytic domain expressed in baculovirus assessed as substrate phosphorylation using fluorescence-labelled peptides as substrate at 2 uM after 90 mins by microfluidic peptide phosphorylation assay.
Assay [9] deals with T3, Protein kinase C epsilon type (Homo sapiens) (UniProt Q02156).
T3 sequence (whole entry): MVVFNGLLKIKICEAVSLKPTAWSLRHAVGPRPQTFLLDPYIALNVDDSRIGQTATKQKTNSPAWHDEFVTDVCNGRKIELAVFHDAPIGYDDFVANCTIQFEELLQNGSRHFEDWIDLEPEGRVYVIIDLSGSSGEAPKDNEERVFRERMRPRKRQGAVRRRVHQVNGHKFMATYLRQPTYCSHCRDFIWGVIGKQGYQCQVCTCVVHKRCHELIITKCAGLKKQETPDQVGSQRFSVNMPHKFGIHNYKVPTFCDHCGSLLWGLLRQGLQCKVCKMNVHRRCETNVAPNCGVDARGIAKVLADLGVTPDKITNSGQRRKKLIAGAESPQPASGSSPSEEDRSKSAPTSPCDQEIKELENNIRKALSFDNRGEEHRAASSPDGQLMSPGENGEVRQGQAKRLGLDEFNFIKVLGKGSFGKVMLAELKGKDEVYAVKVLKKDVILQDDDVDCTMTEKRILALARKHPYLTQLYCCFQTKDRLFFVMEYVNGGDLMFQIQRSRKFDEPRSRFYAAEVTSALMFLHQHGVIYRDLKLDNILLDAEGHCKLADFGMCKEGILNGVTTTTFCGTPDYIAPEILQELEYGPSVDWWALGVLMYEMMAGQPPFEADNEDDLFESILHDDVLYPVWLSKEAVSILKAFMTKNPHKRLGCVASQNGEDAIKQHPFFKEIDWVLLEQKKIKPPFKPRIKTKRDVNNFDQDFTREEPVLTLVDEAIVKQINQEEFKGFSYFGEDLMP
The experiment in a line: Inhibition of human truncated PKC epsilon expressed in baculovirus assessed as substrate phosphorylation using fluorescence-labelled peptides as substrate at 2 uM after 90 mins by microfluidic peptide phosphorylation assay.

Assay [10] concerns Fibroblast growth factor receptor 2 (Homo sapiens), P21802 [N549H]. The experiment in a line: Inhibition of human FGFR2 N549H mutant catalytic domain expressed in baculovirus assessed as substrate phosphorylation using fluorescence-labelled peptides as substrate at 2 uM after 90 mins by microfluidic peptide phosphorylation assay.
For assay [11], the target named is T2, Serine/threonine-protein kinase Chk1 (Homo sapiens). The experiment in a line: Inhibition of human full length CHK1 expressed in baculovirus assessed as substrate phosphorylation using fluorescence-labelled peptides as substrate at 2 uM after 90 mins by microfluidic peptide phosphorylation assay.
For assay [12], the target named is Epidermal growth factor receptor (Homo sapiens) (UniProt P00533). The experiment in a line: Inhibition of human EGFR catalytic domain expressed in baculovirus assessed as substrate phosphorylation using fluorescence-labelled peptides as substrate at 70 uM after 90 mins by microfluidic peptide phosphorylation assay.
Assay [13] deals with Mitogen-activated protein kinase 1 (Homo sapiens) (UniProt P28482). The experiment in a line: Inhibition of human full length ERK2 expressed in Escherichia coli cell assessed as substrate phosphorylation using fluorescence-labelled peptides as substrate at 70 uM after 90 mins by microfluidic peptide phosphorylation assay.
Sequence of Mitogen-activated protein kinase 1 (Homo sapiens) (P28482 whole entry): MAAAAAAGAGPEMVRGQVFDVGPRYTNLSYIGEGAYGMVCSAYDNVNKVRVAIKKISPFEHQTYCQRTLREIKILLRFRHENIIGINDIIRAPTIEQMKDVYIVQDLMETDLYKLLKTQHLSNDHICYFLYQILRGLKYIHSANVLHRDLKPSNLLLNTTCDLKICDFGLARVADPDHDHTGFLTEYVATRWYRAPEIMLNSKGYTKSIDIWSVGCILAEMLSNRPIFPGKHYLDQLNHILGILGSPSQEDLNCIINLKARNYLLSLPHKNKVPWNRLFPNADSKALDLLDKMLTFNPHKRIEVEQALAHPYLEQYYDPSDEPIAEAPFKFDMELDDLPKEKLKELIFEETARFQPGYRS

Sequence of Platelet-derived growth factor receptor alpha (Homo sapiens) (P16234 whole entry, the tested form may be a part): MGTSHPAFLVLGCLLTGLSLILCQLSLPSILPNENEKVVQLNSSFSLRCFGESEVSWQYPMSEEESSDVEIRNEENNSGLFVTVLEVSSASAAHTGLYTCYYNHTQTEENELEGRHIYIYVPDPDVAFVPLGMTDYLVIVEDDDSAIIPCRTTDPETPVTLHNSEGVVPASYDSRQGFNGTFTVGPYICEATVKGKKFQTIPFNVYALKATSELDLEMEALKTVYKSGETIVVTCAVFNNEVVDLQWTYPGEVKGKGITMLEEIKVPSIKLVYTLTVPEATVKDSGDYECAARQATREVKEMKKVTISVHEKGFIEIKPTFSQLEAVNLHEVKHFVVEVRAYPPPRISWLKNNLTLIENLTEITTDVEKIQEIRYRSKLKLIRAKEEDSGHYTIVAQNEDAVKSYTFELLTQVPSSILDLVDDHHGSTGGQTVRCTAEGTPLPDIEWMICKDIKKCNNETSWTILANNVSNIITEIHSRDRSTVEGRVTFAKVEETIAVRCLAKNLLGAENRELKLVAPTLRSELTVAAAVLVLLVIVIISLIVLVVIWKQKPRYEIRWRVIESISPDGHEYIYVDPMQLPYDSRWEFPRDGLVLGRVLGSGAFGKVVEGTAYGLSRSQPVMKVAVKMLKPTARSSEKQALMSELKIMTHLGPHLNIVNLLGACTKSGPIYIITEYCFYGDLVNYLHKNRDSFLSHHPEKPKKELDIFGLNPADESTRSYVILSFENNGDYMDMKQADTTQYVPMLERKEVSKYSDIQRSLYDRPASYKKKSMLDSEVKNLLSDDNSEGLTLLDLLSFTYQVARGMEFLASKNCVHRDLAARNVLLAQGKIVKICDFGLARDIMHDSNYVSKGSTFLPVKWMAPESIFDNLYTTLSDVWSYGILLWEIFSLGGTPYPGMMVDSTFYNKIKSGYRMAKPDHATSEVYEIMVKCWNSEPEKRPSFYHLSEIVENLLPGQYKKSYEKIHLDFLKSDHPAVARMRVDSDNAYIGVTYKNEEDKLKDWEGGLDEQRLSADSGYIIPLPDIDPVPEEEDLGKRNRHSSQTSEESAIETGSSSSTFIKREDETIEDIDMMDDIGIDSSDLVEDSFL
Sequence of Mitogen-activated protein kinase 3 (Homo sapiens) (P27361 whole entry): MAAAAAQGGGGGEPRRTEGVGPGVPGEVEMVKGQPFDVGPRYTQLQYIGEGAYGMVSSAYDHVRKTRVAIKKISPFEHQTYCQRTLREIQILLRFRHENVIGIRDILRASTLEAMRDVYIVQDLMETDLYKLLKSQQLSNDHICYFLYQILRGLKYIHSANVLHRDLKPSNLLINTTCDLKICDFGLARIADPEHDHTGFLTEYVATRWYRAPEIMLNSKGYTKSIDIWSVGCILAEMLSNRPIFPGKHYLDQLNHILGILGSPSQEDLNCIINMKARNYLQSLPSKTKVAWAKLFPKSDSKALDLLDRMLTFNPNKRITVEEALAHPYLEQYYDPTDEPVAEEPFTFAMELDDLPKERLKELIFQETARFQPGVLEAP
Sequence of Ribosomal protein S6 kinase alpha-2 (Homo sapiens) (Q15349 whole entry, the tested form may be a part): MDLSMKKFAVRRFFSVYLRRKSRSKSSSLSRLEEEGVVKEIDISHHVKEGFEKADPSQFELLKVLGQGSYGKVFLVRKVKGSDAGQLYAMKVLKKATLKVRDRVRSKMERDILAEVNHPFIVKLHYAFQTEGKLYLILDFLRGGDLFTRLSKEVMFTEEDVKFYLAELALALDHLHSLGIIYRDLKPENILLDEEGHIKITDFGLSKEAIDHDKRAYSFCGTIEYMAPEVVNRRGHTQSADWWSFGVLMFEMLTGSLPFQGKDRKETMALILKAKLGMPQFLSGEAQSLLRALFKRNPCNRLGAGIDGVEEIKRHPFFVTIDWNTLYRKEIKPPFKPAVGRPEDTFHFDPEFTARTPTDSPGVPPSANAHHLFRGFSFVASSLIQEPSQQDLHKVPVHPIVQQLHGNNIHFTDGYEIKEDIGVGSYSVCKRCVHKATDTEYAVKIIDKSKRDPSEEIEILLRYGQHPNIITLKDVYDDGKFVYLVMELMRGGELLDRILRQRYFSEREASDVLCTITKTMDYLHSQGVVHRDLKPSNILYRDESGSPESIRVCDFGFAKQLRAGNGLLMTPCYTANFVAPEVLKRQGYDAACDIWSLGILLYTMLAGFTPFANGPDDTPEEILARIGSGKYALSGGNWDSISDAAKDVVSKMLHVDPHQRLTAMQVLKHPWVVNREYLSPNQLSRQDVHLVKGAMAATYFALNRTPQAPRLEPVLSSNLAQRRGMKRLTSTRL
Sequence of Tyrosine-protein kinase HCK (Homo sapiens) (P08631 2-526 limits assumed): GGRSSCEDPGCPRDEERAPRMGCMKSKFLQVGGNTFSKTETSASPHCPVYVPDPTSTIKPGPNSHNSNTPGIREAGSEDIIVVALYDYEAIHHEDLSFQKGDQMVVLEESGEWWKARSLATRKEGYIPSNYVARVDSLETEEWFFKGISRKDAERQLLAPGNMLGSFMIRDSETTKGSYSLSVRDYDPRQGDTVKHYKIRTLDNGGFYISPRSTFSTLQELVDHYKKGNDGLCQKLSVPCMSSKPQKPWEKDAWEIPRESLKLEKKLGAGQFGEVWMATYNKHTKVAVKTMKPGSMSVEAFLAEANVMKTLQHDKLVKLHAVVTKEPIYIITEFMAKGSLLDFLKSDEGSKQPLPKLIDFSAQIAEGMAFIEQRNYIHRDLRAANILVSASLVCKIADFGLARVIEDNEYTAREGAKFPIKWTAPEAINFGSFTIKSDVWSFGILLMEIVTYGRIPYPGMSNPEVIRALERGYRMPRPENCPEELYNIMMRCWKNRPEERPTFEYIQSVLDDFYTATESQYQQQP

Consider `Clc1ccc(C2(c3ccc(-c4ncnc5[nH]cnc45)cc3)CCNCC2)cc1`, for which the inhibition (usually the drop in the measured response relative to a control, in per cent) in [1] came out at 35%.

Turning to `C[C@H](CN(C)C)Oc1nc(Nc2cc3cccc(Cl)c3cn2)cnc1C#N`, the inhibition in assay [2] was 3.5%.

As for `c1nc(N2CCOCC2)c2nc[nH]c2n1`, the inhibition in assay [3] was determined as 78.5%.

For `NCC1CCN(c2ncnc3[nH]ccc23)CC1`, the inhibition in [4] was found to be 8.5%; in [5] it was 28%.

With `COC(=O)c1cnc(Nc2cnc(C#N)cn2)cc1NCC1CCNCC1`, the inhibition in assay [6] amounted to 6.5%.

For `c1cnc2[nH]ccc2c1`, the inhibition in assay [7] stood at 52%.

With `NC1CCN(c2ncnc3[nH]ccc23)CC1`, the inhibition in [8] is 5%; in assay [9] it was 2.5%; in assay [10], 1%; in assay [11], 1.5%.

As for `CNCc1ccc(-c2ncnc3[nH]cnc23)cc1`, the inhibition in assay [12] stood at 16.5%; in assay [13], 29%.

The values above are taken from ChEMBL document CHEMBL3132769, “Fragment growing to retain or alter the selectivity of anchored kinase hinge-binding fragments” (Medchemcomm, 2014).
